Measured values reported in US20250145635A1, “COMPOUND CONTAINING BIS(AZANYLYLIDENE) SULFONYL STRUCTURE AND USE THEREOF IN MEDICINE” (SCINNOHUB PHARMACEUTICAL CO., LTD., priority 2021, published 2025).

Target: recombinant human PKR enzyme (Homo sapiens (Human), UniProt P30613)
Assay: Pyruvate kinase (PKR) activity experiment
Format: biochemical
Settings: activation of recombinant human PKR enzyme
Experimental: • 1). A recombinant human PKR enzyme solution was formulated at a concentration of 60 ng/well (a 20 μL reaction system), and 5 μL of the solution was added into each well of a black transparent bottom 384-well plate. • 2). Compound solutions were formulated at different concentrations, with the final concentrations of 1000/300/100 nM (containing 1% DMSO). Each 5 μL of the compound solution was added into the plate in item 3.1 and mixed well. The plate was incubated at room temperature for 10 min. • 3). A reaction system was formulated according to the instructions of a kit (as shown in the table below), and 10 μL of the reaction system was added into each well of the 384-well plate, and mixed uniformly with the solution in item 3.2.
• 4). The 384-well plate was placed on a microplate reader to detect the fluorescence value at 540/590 nm, where the value was read every 2 minutes and the detection was conducted continuously for 1 hour. • 5). The Slope value within the detection time was calculated, and the 0.1% DMSO well was used as a control well to calculate a compound activation rate.
[formula] • 6). Fitting dose-effect curve
With the log value of the compound concentration as the X axis and the percentage activation rate as the Y axis, a dose-effect curve was fitted with the log(agonist) vs. response-variable slope of the analysis software GraphPad Prism 5, and the AC50 value of the activity of each compound against PKR was obtained.

recombinant human PKR enzyme, sequence (P30613 whole entry): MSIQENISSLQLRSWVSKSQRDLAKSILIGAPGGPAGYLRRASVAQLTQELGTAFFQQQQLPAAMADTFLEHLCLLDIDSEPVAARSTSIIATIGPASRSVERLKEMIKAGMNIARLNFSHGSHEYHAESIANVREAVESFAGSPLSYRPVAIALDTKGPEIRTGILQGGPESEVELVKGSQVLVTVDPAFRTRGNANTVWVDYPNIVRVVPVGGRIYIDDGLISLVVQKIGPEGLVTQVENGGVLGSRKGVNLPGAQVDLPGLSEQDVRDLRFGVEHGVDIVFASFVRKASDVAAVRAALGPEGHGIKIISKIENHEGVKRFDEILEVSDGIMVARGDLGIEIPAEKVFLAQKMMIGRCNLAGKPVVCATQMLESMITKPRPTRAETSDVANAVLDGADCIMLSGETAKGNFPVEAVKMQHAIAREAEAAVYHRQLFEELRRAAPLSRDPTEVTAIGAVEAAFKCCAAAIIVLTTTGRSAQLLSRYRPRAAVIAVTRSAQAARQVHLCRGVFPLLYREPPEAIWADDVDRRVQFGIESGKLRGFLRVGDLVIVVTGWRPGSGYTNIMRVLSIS

Compound | AC50 [nM]
CN(C)CC(C(=O)N1CC(=C2CN(S(=O)(=O)c3ccc4ncsc4c3)C2)C1)c1ccc(F)c(Cl)c1 (stereo not shown) [Compound 42, 1-(1′-(benzo[d]thiazol-6-ylsulfonyl)-1′,4′-dihydro-2H,2′H-[3,3′-diazetidinylidene]-1(4H)-yl)-2-(3-chloro-4-fluorophenyl)-3-(dimethylamino)propan-1-one] | 300 to 1000
CN1CCN(c2cccc(C(O)C(=O)N3CC(=C4CN(S(=O)(=O)c5ccc6ncsc6c5)C4)C3)c2)CC1 (stereo not shown) [Compound 43, 1-(1′-(benzo[d]thiazol-6-ylsulfonyl)-1′,4′-dihydro-2H,2′H-[3,3′-diazetidinylidene]-1(4H)-yl)-2-hydroxy-2-(3-(4-methylpiperazin-1-yl)phenyl)ethan-1-one] | 300 to 1000
COc1ccc(C(CO)C(=O)N2CC(=C3CN(S(=O)(=O)c4ccc5ncsc5c4)C3)C2)cc1 (stereo not shown) [Compound 44, 1-(1′-(benzo[d]thiazol-6-ylsulfonyl)-1′,4′-dihydro-2H,2′H-[3,3′-diazetidinylidene]-1(4H)-yl)-3-hydroxy-2-(4-methoxyphenyl)propan-1-one] | < 100
Cc1ccc(C(CO)C(=O)N2CC(=C3CN(S(=O)(=O)c4ccc5ncsc5c4)C3)C2)cc1 (stereo not shown) [Compound 45, 1-(1′-(benzo[d]thiazol-6-ylsulfonyl)-1′,4′-dihydro-2H,2′H-[3,3′-diazetidinylidene]-1(4H)-yl)-3-hydroxy-2-(p-tolyl)propan-1-one] | < 100
O=C(C(CO)c1cccc(F)c1)N1CC(=C2CN(S(=O)(=O)c3ccc4ncsc4c3)C2)C1 (stereo not shown) [Compound 46, 1-(1′-(benzo[d]thiazol-6-ylsulfonyl)-1′,4′-dihydro-2H,2′H-[3,3′-diazetidinylidene]-1(4H)-yl)-2-(3-fluorophenyl)-3-hydroxypropan-1-one] | < 100
O=C(C(CO)c1cccnc1)N1CC(=C2CN(S(=O)(=O)c3ccc4ncsc4c3)C2)C1 (stereo not shown) [Compound 48, 1-(1′-(benzo[d]thiazol-6-ylsulfonyl)-1′,4′-dihydro-2H,2′H-[3,3′-diazetidinylidene]-1(4H)-yl)-3-hydroxy-2-(pyridin-3-yl)propan-1-one] | 101 to 300
O=C([C@H](CO)c1ccccc1)N1CC(=C2CN(S(=O)(=O)c3ccc4c(n3)OCCO4)C2)C1 [Compound 49, (S)-1-(1′-((2,3-dihydro-[1,4]dioxino[2,3-b]pyridin-6-yl)sulfonyl)-1′,4′-dihydro-2H,2′H-[3,3′-diazetidinylidene]-1(4H)-yl)-3-hydroxy-2-phenylpropan-1-one] | < 100
O=C([C@@H](CO)c1ccc(F)cc1)N1CC(=C2CN(S(=O)(=O)c3ccc4ncsc4c3)C2)C1 [Compound 51, (R)-1-(1′-(benzo[d]thiazol-6-ylsulfonyl)-1′,4′-dihydro-2H,2′H-[3,3′-diazetidinylidene]-1(4H)-yl)-2-(4-fluorophenyl)-3-hydroxypropan-1-one] | 300 to 1000
O=C([C@H](CO)c1ccc(F)cc1)N1CC(=C2CN(S(=O)(=O)c3ccccn3)C2)C1 [Compound 54, (S)-2-(4-fluorophenyl)-3-hydroxy-1-(1′-(pyridin-2-ylsulfonyl)-1′,4′-dihydro-2H,2′H-[3,3′-diazetidinylidene]-1(4H)-yl)propan-1-one] | < 100
O=C([C@@H](CO)c1ccc(F)cc1)N1CC(=C2CN(S(=O)(=O)c3ccccn3)C2)C1 [Compound 55, (R)-2-(4-fluorophenyl)-3-hydroxy-1-(1′-(pyridin-2-ylsulfonyl)-1′,4′-dihydro-2H,2′H-[3,3′-diazetidinylidene]-1(4H)-yl)propan-1-one] | 300 to 1000
O=C(C(CO)c1ccc(F)c(Cl)c1)N1CC(=C2CN(S(=O)(=O)c3ccccn3)C2)C1 (stereo not shown) [Compound 59, 2-(3-chloro-4-fluorophenyl)-3-hydroxy-1-(1′-(pyridin-2-ylsulfonyl)-1′,4′-dihydro-2H,2′H-[3,3′-diazetidinylidene]-1(4H)-yl)propan-1-one] | 101 to 300
O=C(C(CO)c1ccc(F)c(F)c1)N1CC(=C2CN(S(=O)(=O)c3ccccn3)C2)C1 (stereo not shown) [Compound 61, 2-(3,4-difluorophenyl)-3-hydroxy-1-(1′-(pyridin-2-ylsulfonyl)-1′,4′-dihydro-2H,2′H-[3,3′-diazetidinylidene]-1(4H)-yl)propan-1-one] | 300 to 1000
Cn1cnc2ccc(S(=O)(=O)N3CC(=C4CN(C(=O)[C@H](CO)c5ccccc5)C4)C3)cc21 [Compound 63, (S)-3-hydroxy-1-(1′-((1-methyl-1H-benzimidazol-6-yl)sulfonyl)-1′,4′-dihydro-2H,2′H-[3,3′-diazetidinylidene]-1(4H)-yl)-2-phenylpropan-1-one] | 101 to 300
N#Cc1ccc(S(=O)(=O)N2CC(=C3CN(C(=O)[C@H](CO)c4ccccc4)C3)C2)cc1 [Compound 65, (S)-4-(1′-(3-hydroxy-2-phenylpropionyl)-1′,4′-dihydro-2H,2′H-[3,3′-diazetidinylidene]-1(4H)-ylsulfonyl)benzonitrile] | 101 to 300
O=C([C@H](CO)c1ccccc1)N1CC(=C2CN(S(=O)(=O)c3ccc(Cl)cn3)C2)C1 [Compound 66] | 101 to 300
COc1ccc(S(=O)(=O)N2CC(=C3CN(C(=O)[C@H](CO)c4ccccc4)C3)C2)nc1 [Compound 67, (S)-3-hydroxy-1-(1′-((5-methoxypyridin-2-yl)sulfonyl)-1′,4′-dihydro-2H,2′H-[3,3′-diazetidinylidene]-1(4H)-yl)-2-phenylpropan-1-one] | < 100
O=C([C@H](CO)c1ccccc1)N1CC(=C2CN(S(=O)(=O)c3cccnc3)C2)C1 [Compound 68, (S)-3-hydroxy-2-phenyl-1-(1′-(pyridin-3-ylsulfonyl)-1′,4′-dihydro-2H,2′H-[3,3′-diazetidinylidene]-1(4H)-yl)propane-1-one] | 300 to 1000
O=C([C@H](CO)c1ccccc1)N1CC(=C2CN(S(=O)(=O)c3cccc4cccnc34)C2)C1 [Compound 69, (S)-3-hydroxy-2-phenyl-1-(1′-(quinolin-8-ylsulfonyl)-1′,4′-dihydro-2H,2′H-[3,3′-diazetidinylidene]-1(4H)-yl)propan-1-one] | < 100
N#Cc1ccc(S(=O)(=O)N2CC(=C3CN(C(=O)[C@H](CO)c4ccccc4)C3)C2)nc1 [Compound 70, (S)-6-((1′-(3-hydroxy-2-phenylpropionyl)-1′,4′-dihydro-2H,2′H-[3,3′-diazetidinylidene]-1(4H)-yl)sulfonyl)nicotinonitrile] | 300 to 1000
O=C(C(CO)c1ccc(C(F)F)cc1)N1CC(=C2CN(S(=O)(=O)c3ccccn3)C2)C1 (stereo not shown) [Compound 71, 2-(4-(difluoromethyl)phenyl)-3-hydroxy-1-(1′-(pyridin-2-ylsulfonyl)-1′,4′-dihydro-2H,2′H-[3,3′-diazetidinylidene]-1(4H)-yl)propan-1-one] | < 100
CCOc1ccc(S(=O)(=O)N2CC(=C3CN(C(=O)[C@H](CO)c4ccccc4)C3)C2)nc1 [Compound 72, (S)-1-(1′-((5-ethoxypyridin-2-yl)sulfonyl)-1′,4′-dihydro-2H,2′H-[3,3′-diazetidinylidene]-1(4H)-yl)-3-hydroxy-2-phenylpropan-1-one] | < 100
O=C(C(CO)c1ccc(Cl)cc1)N1CC(=C2CN(S(=O)(=O)c3ccccn3)C2)C1 (stereo not shown) [Compound 75, 2-(4-chlorophenyl)-3-hydroxy-1-(1′-(pyridin-2-ylsulfonyl)-1′,4′-dihydro-2H,2′H-[3,3′-diazetidinylidene]-1(4H)-yl)propan-1-one] | 101 to 300
O=C([C@@H](CO)c1ccc(F)c(Cl)c1)N1CC(=C2CN(S(=O)(=O)c3ccccn3)C2)C1 [Compound 76, (R)-2-(3-chloro-4-fluorophenyl)-3-hydroxy-1-(1′-(pyridin-2-ylsulfonyl)-1′,4′-dihydro-2H,2′H-[3,3′-diazetidinylidene]-1(4H)-yl)propan-1-one] | 300 to 1000
O=C([C@H](CO)c1ccc(F)c(Cl)c1)N1CC(=C2CN(S(=O)(=O)c3ccccn3)C2)C1 [Compound 77, (S)-2-(3-chloro-4-fluorophenyl)-3-hydroxy-1-(1′-(pyridin-2-ylsulfonyl)-1′,4′-dihydro-2H,2′H-[3,3′-diazetidinylidene]-1(4H)-yl)propan-1-one] | < 100
O=C([C@H](CO)c1ccccc1)N1CC(=C2CN(S(=O)(=O)c3ccc(OC(F)F)cn3)C2)C1 [Compound 80, (S)-1-(1′-((5-(difluoromethoxy)pyridin-2-yl)sulfonyl)-1′,4′-dihydro-2H,2′H-[3,3′-diazetidinylidene]-1(4H)-yl)-3-hydroxy-2-phenylpropan-1-one] | < 100
CC(C)Oc1ccc(S(=O)(=O)N2CC(=C3CN(C(=O)[C@H](CO)c4ccccc4)C3)C2)nc1 [Compound 81, (S)-3-hydroxy-1-(1′-((5-isopropoxypyridin-2-yl)sulfonyl)-1′,4′-dihydro-2H,2′H-[3,3′-diazetidinylidene]-1(4H)-yl)-2-phenylpropan-1-one] | 101 to 300
O=C([C@H](CO)c1ccccc1)N1CC(=C2CN(S(=O)(=O)c3ccc(OC4CC4)cn3)C2)C1 [Compound 82, (S)-1-(1′-((5-cyclopropoxypyridin-2-yl)sulfonyl)-1′,4′-dihydro-2H,2′H-[3,3′-diazetidinylidene]-1(4H)-yl)-3-hydroxy-2-phenylpropan-1-one] | < 100
O=C([C@H](CO)c1ccc(F)cc1F)N1CC(=C2CN(S(=O)(=O)c3ccccn3)C2)C1 [Compound 83, (S)-2-(2,4-difluorophenyl)-3-hydroxy-1-(1′-(pyridin-2-ylsulfonyl)-1′,4′-dihydro-2H,2′H-[3,3′-diazetidinylidene]-1(4H)-yl)propan-1-one] | < 100
